Laboratory results from US20030226169A1, “DNA sequences encoding antifungal proteins” (priority 1995, published 2003).

Columns and labels:
[1] = test system: Verticillium dahliae (MUCL 19210); test: Antifungal growth inhibition microplate assay (photospectrometry); format: cell-based; conditions: Rs-AFP2 15-mer MPS peptides; one test; 96 hours
How it was run: (§1)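 Spores (2×10^4/ml) in half-strength potato dextrose broth exposed to test solution, incubated in the dark at room temperature for about 72 h (96 h for V. dahliae). Growth by OD595 minus 30-min reading; IC50 is 50% and MIC 100% growth inhibition.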

[2] = test system: Fusarium culmorum (IMI 180420); test: as above; format: cell-based
How it was run: as §1

[3] = test system: Botrytis cinerea (MUCL 30158); test: as above; format: cell-based; conditions: Rs-AFP2 15-mer MPS peptides; one test
How it was run: as §1

[4] = test system: Alternaria brassicicola (MUCL 20297); test: as above; format: cell-based; conditions: Rs-AFP2 15-mer MPS peptides; one test
How it was run: as §1

yeast = conditions: at concentrations as high as 500 μg/ml; cited from earlier work
[5] = test system: Ascophyta pisi (MUCL 30164); format: cell-based; conditions: Rs-AFP2 15-mer MPS peptides; one test
Experimental: The following fungal strains were used: Alternaria brassicicola (MUCL 20297), Ascophyta pisi (MUCL 30164), Botrytis cinerea (MUCL 30158), Fusarium culmorum (IMI 180420) and Verticillium dahliae (MUCL 19210).
Fungi were grown on six cereal agar plates at room temperature and under white fluorescent light except for F culmorum and V dahliae which were grown in the dark. The duration of the spore harvest varied between 10 and 25 days depending on the strain. Spores were collected as follows. Five to ten ml of sterile milli-Q water was poured into each dish and the surface of the agar was rubbed with a sterile spatula to obtain a suspension containing mycelium and spores. This suspension was filtered through a sterile glasswool-plugged funnel and the filtrate containing the spores was collected in a sterile polypropylene centrifuge tube. The A brassicicola spores were suspended in sterile 0.1 Tween 20 (Merk, 822184) due to their hydrophobic nature. The spore suspensions were then washed twice by centrifugation at 2,400×g for 15 minutes and resuspended in a small volume of steril milli-Q water. The spore density was determined in a counting chamber and then adjusted to 4×10^7 spores per ml. Aliquots of the spore suspension were transferred to sterile microtubes and an equal volume of sterile 50% glycerol (Merck, 4091) was added to each tube so that a final spore suspension of 2×10^7 spores per ml in 25% glycerol was obtained. After careful mixing of the stock, the spore suspension was transferred in 100 μl aliquots to sterile microtubes and stored at −80° C.
Antifungal activity was measured by photospectrometry as described by Broekaert et al, (1990, FEMS Microbiol Lett, 69:55-60). Tests were performed by adding 20 μl of test solution and 80 μl of a fungal spore suspension (2×10^4 spores/ml) per well in a sterile flat-bottom 96-well microtiterplate. The spore suspension was prepared by diluting the stock spore suspension ([…] in 25% glycerol) 1:1000 in half-strength potato dextrose broth. A positive growth control consisting of eight wells containing 20 μl of sterile milli-Q water and 80 μl of the fungal spore suspension was included in each test. The microtiterplates were incubated (with the lid on) in an aerated place at room temperature and under conditions of darkness for all test organisms.
After 30 minutes of incubation (when the spores are settled on the well bottom) the optical density was measured in a microplate reader (Bio Rad 3550-UV) at 595 nm. Incubation of the microtiterplates continued until the optical density of the control microculture was between 0.250 and 0.500, which took approximately 72 hours (96 hours for V dahliae). Percentage of growth inhibition (% GI) was estimated as 100 times the ratio of the corrected absorbance of the control microculture minus the corrected absorbance of the test microculture over the corrected absorbance of the control microculture at 595 nm. The corrected absorbance values equal the absorbance at 595 nm of the culture measured after 72 or 96 hours minus the absorbance at 595 nm measured after 30 minutes.
% GI=[(Acontrol−Atest/Acontrol]×100
where Acontrol=(A72/96h−A30min)control
The IC50 value is defined as the concentration that gives a 50% growth inhibition after 72 or 96 hours of incubation. The minimum inhibitory concentration (MIC) corresponds to the minimum concentration that gives 100% growth inhibition after 72 or 96 hours incubation.

various fungi = conditions: on various fungi; cited from earlier work
[6] = Table 14: 18-, 19-, 20-mer peptides with C-terminal Phe49, duplo

Rs-AFP2: antifungal protein 2 (plant defensin) from radish (Raphanus sativus) seeds; positive control (QKLCQRPSGTWSGVCGNNNACKNQCIRLEKARHGSCNYVFPAHKCICYFPC; listed as Raphanus sativus)
MIC VALUES V DAHLIAE [1]: 10 µg/mL
MIC VALUES F CULMORUM MPS ([2]; Rs-AFP2 15-mer MPS peptides, medium value of five tests): 5 to 10 µg/mL
MIC VALUES F CULMORUM Split ([2]; Rs-AFP2 15-mer split peptides (extra C-terminal beta-alanine), dilution 500-3.9 μg/ml, duplicate, MIC approximations): 10 µg/mL
MIC ([2]; Table 12: Rs-AFP2 15-mer peptides, ½ PDB): 3 µg/mL
MIC ([2]; Table 12: ½ PDB supplemented with 1 mM CaCl2): 6 µg/mL
MIC ([2]; Table 12: ½ PDB supplemented with 5 mM CaCl2): 6 µg/mL
MIC ([2]; Table 12: ½ PDB supplemented with 10 mM KCl): 3 µg/mL
MIC ([2]; Table 12: ½ PDB supplemented with 50 mM KCl): 3 µg/mL
MIC ([2]; Table 12: ½ PDB supplemented with 50 mM KCl, 1 mM CaCl2): 6 µg/mL
IC50 1/2 PDB ([2]; Table 13: linear β2-β3 loop MPS peptides, 2 × 10^4 spores/ml, duplo): 3.3 ± 0.0 µg/mL
IC50 SMF + pH5 ([2]; Table 13: linear β2-β3 loop MPS peptides, SMF+ (1 mM Ca2+, 50 mM K+) pH5, duplo): 5.2 ± 1.2 μg/ml
IC50 SMF + pH7 ([2]; Table 13: linear β2-β3 loop MPS peptides, SMF+ (1 mM Ca2+, 50 mM K+) pH7, duplo): 6.1 ± 1.3 μg/ml
IC50 SMF + pH5 [2, 6]: 7.2 ± 0.6 μg/ml
IC50 SMF + pH7 [2, 6]: 3.7 ± 0.6 μg/ml
IC50 ½ PDB ([2]; Table 14: 18-, 19-, 20-mer peptides with C-terminal Phe49, peptides single experiment): 2.5 ± 0.8 µg/mL
MIC VALUES B CINEREA [3]: >40 µg/mL
MIC VALUES A BRASSICICOLA [4]: 10 µg/mL
adverse effects on yeast (yeast): does not have adverse effects
MIC VALUES A PISI [5]: 20 to 40 µg/mL
activity relative to Rs-AFP1 (various fungi): two- to thirty-fold more active
